Assay results: patent US12319967B2, “Methods and compositions for diagnosing and treating prostate cancer based on long noncoding RNA overlapping the LCK gene that regulates prostate cancer cell growth” (University of Virginia Patent Foundation, priority 2019, dated 2025)

Tested on: HULLK
Assay: qPCR of HULLK (LCK 3'UTR / exon 13) transcript levels in response to hormone and AR, p300 or Brd4 inhibition
Assay type: cell-based, human
Conditions: for HULLK expression in response to R1881: 1 nM R1881; for R1881-induced increase in LCK 3'UTR transcript levels: 1 nM R1881, 24 hrs
Protocol: FIGS. 2A through 2E illustrate that HULLK is an AR-regulated lncRNA. […] LNCaP and C42 cells were transduced with two independent shRNAs to LCK and treated with 0-1 nM R1881. RNA was collected on Day 4 and LCK transcript levels were determined using LCK primers targeting the 3′UTR. […] LNCaP and C42 cells were seeded for 48 hrs, and then, treated with 1 nM R1881 in the presence or absence of 10 μM enzalutamide. RNA was collected 24 hrs after treatment and LCK transcript levels were determined by qPCR using LCK primers targeting the 3′UTR. C4-2, DU145, and PC3 cells were seeded in CSS media for 48 hrs, and then, treated with 1 nM R1881 for 16 hrs. RNA was collected and LCK transcript levels were determined using LCK primers targeting the 3′UTR. […] FIG. 2E illustrates that Brd4 inhibition reduces the hormone induction of HULLK, n=3. LNCaP, C42, or Jurkat cells were seeded for 48 hrs in the appropriate growth media, and then, treated with 1 nM R1881 in the presence or absence of 0.3 μM A-485 or 0.1 μM JQ1. RNA was collected 24 hrs after treatment and LCK transcript levels were determined by qPCR using LCK primers targeting exon 13 or 3′UTR. PSA and TMPRSS2 transcripts were determined to verify the efficacy of p300 and Brd4 inhibition.
FIGS. 7A and 7B illustrate the regulation of HULLK by the AR in breast cancer cells. […] LNCaP, MCF7, BT549, and MDA-MD-231 cells were seeded in the appropriate growth media, and whole cell lysates were collected 48 hrs later and blotted for AR21 and ERK1/2. […] MCF7, BT549, and MDA-MB-231 cells were seeded in CSS media for 48 hrs, and then, treated with 1 nM R1881 for 16 hrs. RNA was collected and LCK transcript levels were determined using LCK primers targeting the 3′UTR, n=3.
Cell Culture and Reagents. LNCaP and C4-2 cells (a gift from Dr. L. W. K. Chung) were grown in DMEM:F12 (Invitrogen) with 5% Non-Heat-Inactivated serum (Gemini) and 1% Insulin-Transferrin-Selenium-Ethanolamine (ThermoFisher). CWR22Rv1 (Rv1), VCaP, PC3 (gifts from Drs. Steven Balk, Karen Knudsen, and Chung, respectively), WMPY-1 (ATCC), MCF7, BT549 and MDA-MB-231 (gifts from Dr. Amy Bouton) were grown in DMEM (Invitrogen) with 10% Heat-Inactivated serum. DU145 (a gift from Dr. Chung), PANC1 (a gift from Dr. J. Thomas Parsons), HeLa and Jurkat cells (gifts from Dr. Tim Bender) were grown in RPMI-1640 (Invitrogen) with 10% Heat-Inactivated serum. LHS cells (a gift from Dr. William Hahn) were grown in ProstaLife Epithelial Cell Medium (Lifeline). RWPE-1 (ATCC) cells were grown in Keratinocyte-Serum-Free Media (Invitrogen). For growth and RNA experiments, phenol-red free DMEM:F12 media with 5% Charcoal-Stripped Serum (CSS) (Gemini) was used.
RNA Isolation, qPCR and ddPCR: RNA was collected using TRIzol and quantitated using a NanoDrop 2000 UV-Vis Spectrophotometer (ThermoFisher). cDNA was synthesized using Superscript IV VILO cDNA synthesis kit (Invitrogen). Quantitative real-time PCR (qPCR) was performed as previously described (17,18). Droplet digital PCR (ddPCR) was executed according to the manufacturer's protocol (Bio-Rad).
To assess whether this lncRNA is modulated by hormone, transcript levels of this lncRNA were quantified by qPCR using 3′UTR primers in LNCaP and C4-2 cells transduced in the presence of increasing concentrations of R1881 (FIG. 2A). […] This increase was inhibited in the presence of two independent LCK shRNAs in both cell lines.
This hormone regulation was confirmed by measuring transcript amounts in LNCaP and C4-2 cells treated with vehicle or R1881 in the presence or absence of the anti-androgen enzalutamide (FIG. 2B). As expected, there was an 8-fold and 12-fold R1881-induced increase in LCK 3′UTR transcript levels in LNCaP and C4-2 cells, respectively. […] Androgen deprivation influenced message levels negligibly in LNCaP cells, but decreased transcript amounts of this lncRNA by approximately 2.9-fold in C4-2 cells (FIG. 2B, C4-2 vehicle vs. media). […]

C[C@]1(O)CC[C@H]2[C@@H]3CCC4=CC(=O)CCC4=C3C=C[C@@]21C [R1881]
R1881-induced increase in this lncRNA (HULLK) (AR-null DU145 and PC3 cells, 1 nM R1881, 16 hrs): no R1881-induced increase | HULLK expression in response to R1881 (BT549 or MDA-MB-231 cells): not | R1881-induced increase in LCK 3'UTR transcript levels (C4-2 cells): 12 fold | lncRNA transcripts in response to increasing concentrations of R1881 (LNCaP and C4-2 cells, 0-1 nM R1881, 3'UTR primers): dose-dependent increase | R1881-induced increase in LCK 3'UTR transcript levels (LNCaP cells): 8 fold | HULLK expression in response to R1881 (MCF7 cells): increases
